From ChEMBL document CHEMBL1201862, “PubChem BioAssay data set” (2004)
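Grown in 96-well plates, cells were treated for 48 hours with each compound at five concentrations. Insufficient inhibition: endpoint recorded as highest concentration tested. GI50 = concentration required for 50% inhibition of growth.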 Activity calls are given as the source filed them. Rule as the data show it: active = GI50 up to about 1.1 µM and inactive = higher.

What was measured:
Test in all cases: NCI anticancer screen, dose series, 48 h
HOP-62 = test system: HOP-62
HT-29 = test system: HT-29
IGROV-1 = test system: IGROV-1
MCF7 = test system: MCF7
MDA-MB-231 = test system: MDA-MB-231
MDA-N = test system: MDA-N
PC-3 = test system: PC-3
RPMI-8226 = test system: RPMI-8226
RXF 393 = test system: RXF 393
SF-268 = test system: SF-268
SF-295 = test system: SF-295
SK-MEL-5 = test system: SK-MEL-5
SW-620 = test system: SW-620
UACC-257 = test system: UACC-257
A498 = test system: A498
ACHN = test system: ACHN
HCT-116 = test system: HCT-116
U-251 = test system: U-251
UO-31 = test system: UO-31

Measured: GI50

COc1c(F)c(F)c(C(=O)/C=C2\Nc3ccccc3NC2=O)c(F)c1F
inactive: HOP-62 4.41 µM | HT-29 6.98 µM | IGROV-1 7.33 µM | MCF7 > 10 µM | MDA-MB-231 > 10 µM | MDA-N > 10 µM | PC-3 7.57 µM | RPMI-8226 > 10 µM | RXF 393 9.51 µM | SF-268 9.1 µM | SF-295 5.52 µM | SK-MEL-5 8.95 µM | SW-620 8.38 µM | UACC-257 > 10 µM

N/N=C1N=C(Cl)/C(=C/c2ccco2)N\1
inactive: A498 > 100 µM | ACHN 50.4 µM | HCT-116 36.5 µM | HOP-62 59.2 µM | HT-29 34.9 µM | IGROV-1 42.4 µM | MCF7 56 µM | MDA-MB-231 > 100 µM | MDA-N 47.8 µM | PC-3 36.7 µM | RPMI-8226 16.8 µM | RXF 393 65.2 µM | SF-268 34.3 µM | SF-295 38.1 µM | SK-MEL-5 34 µM | SW-620 41.5 µM | U-251 47.9 µM | UACC-257 52.8 µM | UO-31 43.1 µM

CCOC(=O)NC(NC1=NCCS1)(C(=O)OCC)C(F)(F)F (centres undefined)
inactive: A498 > 100 µM | ACHN > 100 µM | HCT-116 > 100 µM | HOP-62 > 100 µM | HT-29 > 100 µM | IGROV-1 > 100 µM | MCF7 > 100 µM | MDA-MB-231 > 100 µM | MDA-N > 100 µM | PC-3 > 100 µM | RPMI-8226 > 100 µM | RXF 393 > 100 µM | SF-268 > 100 µM | SF-295 > 100 µM | SK-MEL-5 > 100 µM | SW-620 > 100 µM | U-251 > 100 µM | UACC-257 > 100 µM | UO-31 > 100 µM

N#CCC12CC=CCC1=C(O)C(=O)c1ccc(O)cc12 (centres undefined)
inactive: A498 > 100 µM | ACHN > 100 µM | HCT-116 > 100 µM | HOP-62 > 100 µM | HT-29 > 100 µM | IGROV-1 > 100 µM | MCF7 > 100 µM | MDA-MB-231 > 100 µM | MDA-N > 100 µM | PC-3 > 100 µM | RPMI-8226 > 100 µM | RXF 393 > 100 µM | SF-268 > 100 µM | SF-295 > 100 µM | SK-MEL-5 > 100 µM | SW-620 > 100 µM | U-251 > 100 µM | UACC-257 > 100 µM | UO-31 48.6 µM

C[C@]12CC[C@H](O)CC1=CC[C@@H]1[C@@H]2CC[C@]2(C)C(=O)[C@@H](N3CCOCC3)C[C@@H]12
inactive: A498 > 100 µM | ACHN > 100 µM | HCT-116 > 100 µM | HOP-62 > 100 µM | HT-29 > 100 µM | IGROV-1 > 100 µM | MCF7 > 100 µM | MDA-MB-231 > 100 µM | MDA-N > 100 µM | PC-3 > 100 µM | RPMI-8226 48.4 µM | RXF 393 36.9 µM | SF-268 48.4 µM | SF-295 > 100 µM | SK-MEL-5 33.1 µM | SW-620 > 100 µM | U-251 89.3 µM | UACC-257 > 100 µM | UO-31 > 100 µM

CN(C)CC1CC/C(=C\c2ccc(Cl)cc2)C1=O (centres undefined)
active: RPMI-8226 0.441 µM
inactive: A498 13.5 µM | ACHN 12.6 µM | HCT-116 3.31 µM | HOP-62 22.4 µM | HT-29 5.71 µM | IGROV-1 14.6 µM | MCF7 1.87 µM | RXF 393 3.16 µM | SF-268 7.03 µM | SF-295 17.2 µM | SK-MEL-5 11.9 µM | SW-620 2.61 µM | U-251 7 µM | UACC-257 8.17 µM | UO-31 16.6 µM

O=c1[nH]c(S)nc2c1sc(=S)n2-c1ccccc1
inactive: A498 > 100 µM | ACHN > 100 µM | HCT-116 > 100 µM | HOP-62 > 100 µM | HT-29 > 100 µM | IGROV-1 > 100 µM | RPMI-8226 > 100 µM | RXF 393 > 100 µM | SF-268 > 100 µM | SF-295 > 100 µM | SK-MEL-5 > 100 µM | SW-620 > 100 µM | U-251 > 100 µM | UACC-257 > 100 µM | UO-31 > 100 µM

CC(C)CCC[C@@H](C)C1CCC2[C@@H]3CC=C4C[C@@H](C(=O)NCC[N+](C)(C)CCCS(=O)(=O)[O-])CC[C@]4(C)C3CC[C@@]21C (some centres undefined)
inactive: A498 > 10 µM | ACHN 18.5 µM | HCT-116 16.8 µM | HOP-62 24 µM | HT-29 18 µM | IGROV-1 17.3 µM | RPMI-8226 20.4 µM | RXF 393 20.9 µM | SF-268 21.1 µM | SF-295 20 µM | SK-MEL-5 19.9 µM | SW-620 16.6 µM | U-251 17.3 µM | UACC-257 20 µM | UO-31 19.8 µM

CN(C)Cc1cc(C(C)(C)C)cc(C2CCCCC2)c1O
active: RPMI-8226 < 0.01 µM
inactive: ACHN 15.5 µM | HCT-116 40.7 µM | HOP-62 18 µM | HT-29 2.86 µM | IGROV-1 18.8 µM | MCF7 18.3 µM | MDA-MB-231 13.8 µM | PC-3 13.6 µM | RXF 393 12.6 µM | SF-268 16.8 µM | SK-MEL-5 14.4 µM | SW-620 16.6 µM | U-251 14.4 µM | UACC-257 10.1 µM | UO-31 17.7 µM

COC(=O)c1ccccc1CC1Cc2cc3c(cc2C1)CCC3
inactive: A498 49.4 µM | ACHN 36.6 µM | HCT-116 22.1 µM | HOP-62 41.4 µM | HT-29 29.2 µM | IGROV-1 37.3 µM | MCF7 45.9 µM | MDA-MB-231 55.1 µM | MDA-N 47.8 µM | PC-3 39.3 µM | RPMI-8226 17.3 µM | RXF 393 20.9 µM | SF-268 40.8 µM | SF-295 33.7 µM | SK-MEL-5 25.8 µM | SW-620 53.5 µM | U-251 36.5 µM | UACC-257 31.2 µM | UO-31 39.4 µM

Cc1ccccc1/C=C/c1csnn1
inactive: A498 > 100 µM | ACHN > 100 µM | HCT-116 > 44 µM | HOP-62 > 100 µM | HT-29 > 100 µM | IGROV-1 > 100 µM | RPMI-8226 33.4 µM | RXF 393 > 100 µM | SF-268 > 46.2 µM | SF-295 > 100 µM | SK-MEL-5 > 100 µM | SW-620 > 56.4 µM | U-251 > 100 µM | UACC-257 > 100 µM | UO-31 > 100 µM

CCN(CC)C(=S)N/N=C1\C(=O)Nc2ccccc21
active: ACHN 0.42 µM | HCT-116 0.386 µM | HOP-62 0.431 µM | IGROV-1 0.239 µM | MCF7 0.397 µM | PC-3 0.334 µM | RPMI-8226 0.355 µM | SF-295 0.45 µM | SK-MEL-5 0.193 µM | SW-620 0.493 µM
inactive: A498 1.25 µM | HT-29 1.18 µM | MDA-MB-231 1.14 µM | MDA-N 2.01 µM | RXF 393 1.3 µM | SF-268 > 100 µM | U-251 1.41 µM | UACC-257 1.64 µM
